The values that follow come from PubChem BioAssay (NCI).

Common to all, as to assay: NCI tumour cell line growth inhibition, 48 h
Assay [1] deals with UACC-257 melanoma.
Assay [2] concerns SF-268 CNS.
For assay [3], the system named is T-47D breast.
In assay [4] the test system is SN12C renal.
For assay [5], the system named is A498 renal.
Assay [6] has as its system OVCAR-4 ovarian.
The test system of assay [7] is EKVX NSCLC.
The subject of assay [8] is SK-OV-3 ovarian.
For assay [9], the system named is MDA-MB-231 breast.
In assay [10] the test system is CCRF-CEM leukemia.

Values joined by “and” are separate entries in the source; they are usually repeats but may differ in a detail not shown here. Identical values can stand only once.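 Results reflect a 48-hour exposure of cells in 96-well plates to compound at five concentrations. The concentration for 50% growth inhibition is given as GI50. The concentration for full growth arrest is given as TGI.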

As to `COc1ccc([C@@]23Oc4cc(OC)cc(OC)c4[C@]2(O)[C@H](O)[C@H](C(=O)N(C)C)[C@H]3c2ccccc2)cc1`, the GI50 in assay [1] is 0.0309 µM; in assay [2], 0.0152 µM; in assay [4] it was 0.0192 µM; in assay [5], 0.0155 µM; in [6] it was 0.0149 µM; in assay [8], 0.0157 µM. Besides, the GI50 was 0.0231 µM in [9] and 0.0185 µM in [10]. Also, the TGI in assay [3] was 0.044 µM and 0.0052 µM; in [4] it was 0.329 µM and 0.0664 µM and 0.186 µM; in assay [5], 0.0234 µM and 0.00719 µM and 0.0403 µM; in assay [7] it was 0.22 µM and 0.17 µM; in assay [9], 0.049 µM and 0.00949 µM and 0.0756 µM.

Consider `COc1ccc(N(CC(=O)O)N=O)cc1`, for which the TGI in [1], in [2], in assay [3], in assay [4], in [5] and in assay [6] was above 100 µM each time. The TGI in assay [7], in assay [8], in assay [9] and in assay [10] was above 100 µM in each case.

As for `O=C(CCCCN1CCN(CCCCC(=O)Nc2ccccc2C#C/C=C\C#Cc2ccccc2C(F)(F)F)CC1)Nc1ccccc1C#C/C=C\C#Cc1ccccc1C(F)(F)F`, the GI50 in assay [1] is 10.8 µM; in [2], 12.3 µM; in [3], 13.2 µM; in [4] it was 17.6 µM; in assay [5], 11.7 µM; in assay [6] it was 16.2 µM. The GI50 is 18 µM in assay [7], 18.7 µM in [8], 6.23 µM in assay [9] and 6.02 µM in assay [10]. In addition, the TGI is 22.5 µM in assay [1]; 32.9 µM in assay [2]; 29.2 µM in assay [3]; above 50 µM in assay [4]; 22.9 µM in assay [5]; 49.5 µM in assay [6]. The TGI is above 50 µM in assay [7], above 50 µM in [8], 16 µM in assay [9] and 17 µM in [10].

With `O=C1Nc2ccc(-c3cccnc3)cc2/C1=C/c1cc(Br)c(O)c(Br)c1`, the GI50 was 4.07 µM in assay [1]; 7.71 µM in assay [2]; 10.6 µM in [3]; 9.12 µM in assay [4]; 3.86 µM in assay [5]; 14.8 µM in [6]. The GI50 in assay [7] is 10.2 µM; in assay [8], 8.11 µM; in assay [9] it was 7.41 µM; in [10], 5.43 µM. The TGI in assay [1] was 9.36 µM; in [2] it was above 25 µM; in [3], above 25 µM; in assay [4], above 25 µM; in assay [5], 11.5 µM; in assay [6], above 25 µM. In addition, the TGI in [7] is above 25 µM; in assay [8], 24.9 µM; in assay [9], above 25 µM; in assay [10] it was above 25 µM.

For `Nc1nc(Cl)c2ncn(Cc3ccc(C45CC6CC(CC(C6)C4)C5)c(OCc4cc(F)c(F)cc4F)c3)c2n1`, the GI50 in assay [1] was 0.494 µM; in assay [2], 3.01 µM; in assay [3], 6.75 µM; in assay [4] it was 3.05 µM; in assay [5], 8.78 µM; in assay [6], 6.08 µM. In addition, the GI50 in assay [7] was 10.8 µM; in assay [8], 6.02 µM; in assay [9], 2.58 µM; in assay [10], 1.66 µM. Besides, the TGI was 3.97 µM in [1]; 15.2 µM in assay [2]; 44.8 µM in assay [3]; 11.3 µM in assay [4]; 22.8 µM in assay [5]; above 100 µM in [6]. In addition, the TGI came to 67.1 µM in assay [7], 42.2 µM in assay [8], 9.81 µM in [9] and 4.16 µM in [10].

For the compound `CC[n+]1c(-c2ccccc2)c2cc(N)ccc2c2ccc(N)cc21`, the GI50 in assay [1] is 1.22 µM; in [2] it was 0.281 µM and 0.589 µM and 1.26 µM; in assay [3], 0.323 µM; in [4], 0.306 µM; in assay [5], 5.18 µM and 4.76 µM and 14.7 µM; in assay [6], 0.705 µM. For the same compound, the GI50 in [8] was 2.19 µM; in [9], 2.11 µM; in assay [10], 2.15 µM and 1.2 µM and 4.94 µM. The TGI in assay [1] is 4.8 µM and 10 µM and 6.4 µM; in [2], 2.44 µM and 11.9 µM and 16.9 µM; in assay [3], 2.91 µM and 15 µM; in assay [4], 12 µM and 19.7 µM and 7.37 µM; in [5] it was 40.8 µM and 52.5 µM and 66.2 µM; in assay [6] it was 3.99 µM and 29.5 µM and 36 µM. The TGI is 34.2 µM and 42.8 µM and > 100 µM in assay [7]; 23.5 µM and 25.6 µM in assay [8]; 39.3 µM and 37.3 µM in assay [9]; 77 µM and 33 µM and 48.3 µM in assay [10].

As to `CO[C@H]1C(=O)[C@]2(C)[C@@H](OC)C[C@H]3OC[C@@]3(OC(C)=O)[C@H]2[C@H](OC(=O)c2ccccc2)[C@]2(O)C[C@H](OC(=O)[C@H](O)[C@@H](NC(=O)OC(C)(C)C)c3ccccc3)C(C)=C1C2(C)C`, the TGI in assay [1] is above 63 µM; in [2], 68.6 µM; in assay [3], above 100 µM; in assay [4] it was above 100 µM; in [5] it was 10.1 µM; in assay [6] it was above 77.1 µM. The TGI is above 100 µM in [7], 35.2 µM in [8], above 53.6 µM in assay [9] and 42.3 µM in [10]. For the same compound, the GI50 in [2] was below 0.01 µM; in assay [3], below 0.01 µM; in [4] it was below 0.01 µM; in assay [5], below 0.01 µM; in [7], 0.425 µM; in [8], below 0.01 µM. Also, the GI50 in assay [9] was below 0.0183 µM; in [10], below 0.01 µM.

`Oc1cn(-c2ccc(Cl)cc2)nc1-c1n[nH]c(=S)n1-c1ccc(F)cc1`: the GI50 in [1] is 24.2 µM; in assay [2] it was 14.7 µM; in assay [3] it was above 100 µM; in assay [4], 16.9 µM; in [5], 34.6 µM; in assay [6] it was 45.4 µM. In addition, the GI50 was 27.5 µM in assay [7], above 100 µM in assay [8], 10.2 µM in assay [9] and 7.29 µM in assay [10]. The TGI in [1] is 77.4 µM; in assay [2], 70.8 µM; in assay [3] it was above 100 µM; in assay [4] it was 50.3 µM; in assay [5] it was 76.5 µM; in [6], above 100 µM. Also, the TGI was 91.1 µM in assay [7], above 100 µM in [8], 60.1 µM in [9] and above 100 µM in [10].

Consider `CCc1ccc(Oc2c(-c3ccc(OCc4ccc(Cl)cc4)cc3O)nn(C)c2C(F)(F)F)cc1`, for which the GI50 is 1.18 µM in assay [1]; 1.25 µM in assay [2]; 0.248 µM in assay [3]; 1.04 µM in assay [4]; 1.28 µM in [5]; 0.547 µM in assay [6]. Besides, the GI50 was 1.03 µM in assay [7], 1.63 µM in [8], 1.19 µM in assay [9] and 0.454 µM in assay [10]. Also, the TGI in assay [1] stood at 3.53 µM; in assay [2] it was 2.9 µM; in assay [3], 0.936 µM; in assay [4] it was 2.48 µM; in assay [5], 2.93 µM; in assay [6], 2.33 µM. Also, the TGI was determined as 2.98 µM in [7], 4.98 µM in assay [8], 2.85 µM in assay [9] and 4.82 µM in assay [10].

As to `CC(=O)Nc1cccc(C#Cc2cncnc2Nc2ccc(OCc3cccc(F)c3)c(Cl)c2)c1`, the GI50 in [1] was 13.7 µM; in assay [2], 16.6 µM; in assay [3] it was 3.7 µM; in [4], 10.2 µM; in assay [5] it was 1.1 µM; in assay [6], 7.6 µM. Also, the GI50 in assay [7] is 2.01 µM; in assay [8], 6.14 µM; in assay [9] it was 15.6 µM; in [10], 10.2 µM. Further, the TGI is above 25 µM in [1]; above 25 µM in assay [2]; above 25 µM in assay [3]; above 25 µM in assay [4]; above 16.6 µM in assay [5]; above 25 µM in assay [6]. Also, the TGI was above 21.5 µM in [7], above 25 µM in [8], above 25 µM in assay [9] and above 25 µM in assay [10].

With `O=C1c2cccc3c(N4CCOCC4)ccc(c23)C(=O)N1CCN1CCN(CCCCCN2CCN(CCN3C(=O)c4cccc5c(N6CCOCC6)ccc(c45)C3=O)CC2)CC1`, the GI50 in assay [1] is 74 µM; in [2], above 100 µM; in [3] it was above 100 µM; in assay [4] it was 57.4 µM; in [5], above 100 µM; in assay [6], above 100 µM. The GI50 in [7] was above 100 µM; in assay [8], above 100 µM; in assay [9] it was above 100 µM; in assay [10] it was 32.9 µM. For the same compound, the TGI in [1], in assay [2], in assay [3], in [4], in assay [5] and in assay [6] was above 100 µM each time. Moreover, the TGI in assay [7], in assay [8], in [9] and in assay [10] was above 100 µM in each case.

For the compound `CCOC(=O)c1cc(C(=O)c2ccc(OC)c(OC)c2)n2c1ccc1ccc3cccnc3c12`, the GI50 was 25 µM in assay [1]; 4.62 µM in assay [2]; 2.37 µM in assay [3]; 5.46 µM in assay [4]; 2.82 µM in [5]; 5.17 µM in [6]. Also, the GI50 in [7] was 4.14 µM; in assay [8], 4.02 µM; in assay [9], 2.66 µM; in assay [10], 3.13 µM. For the same compound, the TGI in assay [1], in assay [2], in [3], in assay [4], in [5] and in assay [6] was above 100 µM in each case. The TGI in [7], in [8], in assay [9] and in assay [10] was above 100 µM each time.

On to `COc1cc2c(c3c1c(=O)c1ccccc1n3C)C=C([N+](=O)[O-])C(C)(C)O2`, for which the TGI in [1] is above 48 µM; in assay [2], above 100 µM; in assay [3], above 100 µM; in assay [4], above 100 µM; in assay [5], 12.5 µM; in assay [6] it was above 100 µM. For the same compound, the TGI is above 100 µM in [7], above 100 µM in assay [8], above 31.6 µM in assay [9] and above 100 µM in assay [10].
